pIC50: −log10 of the molar value.
Tested on: 292921-168-R-J2-PDC KRAS tumor spheroid viability
Test: Anticancer human tumor 292921-168-R-J2-PDC patient-derived pancreatic carcinoma cell line growth inhibition [KRAS2]
Details: spheroids with HUVEC and MSC; for pIC50: curve of first compound; for viability, T/C: stronger effect = lower value
Description: Multicellular complex tumor spheroid response to RAS pathway inhibitors in combination with a targeted agents in patient-derived cell lines with oncogenic KRAS variants from multiple cancer types
A high-throughput screen of multi-cell type tumor spheroids was designed to identify active combinations of targeted small molecules and KRAS pathway inhibitors. Complex spheroids include a stromal component modeled by human endothelial cells (HUVEC) and fibroblasts modeled by human mesenchymal stem cells (MSCs). The concentration ranges selected for each drug and investigational agent were based upon clinically achievable concentrations if the clinical Cmax of the agent was known.
Compounds. The drugs and investigational agents: BI-3406 (NSC825286), BAY-293 (NSC824723), batoprotafib (TNO155; NSC825523), sotorasib (AMG 510; NSC818433), MRTX1257 (NSC819558), elimusertib (BAY 1895344; NSC800525), molibresib (GSK525762; NSC774829), temuterkib (LY3214996; NSC803410), venetoclax (NSC766270), alisertib (NSC759677), olaparib (NSC753686), talazoparib (NSC767125), erdafitinib (NSC781556), ipatasertib (NSC767898), cabozantinib (NSC761068), nintedanib (NSC756659), abemaciclib (NSC768073), docetaxel (NSC628503), trametinib (NSC758246), and sapanisertib (NSC764658) were obtained from the National Cancer Institute (NCI) Developmental Therapeutics Program Chemical Repository. The FDA-approved anticancer drug set is available from the Developmental Therapeutics Program. […] The stock solutions were prepared in dimethyl sulfoxide (DMSO, Sigma-Aldrich, St. Louis, MO, cat. D2650) at 800-fold the tested concentration and stored at -70 degrees C prior to their use. All drugs and investigational agents were tested over a range starting from a high concentration at or near the clinical Cmax and decreasing in half-log increments. If the clinical Cmax for an agent had not been determined, the highest concentration tested was 10 microM.
Cell Culture. All cells were maintained in an incubator at 37 degrees C and 5% CO2 with 95% humidity. The PDC lines were cultured according to standard operating procedures established by the NCI PDMR (https://pdmr.cancer.gov/sops/default.htm). Briefly, all PDCs were thawed and cultured in Matrigel-coated flasks prepared with a working solution of 1X Ham's F-12 nutrient mix, without supplementation (Invitrogen, Waltham, MA, cat. 11765054), 100 U/mL penicillin-streptomycin (Invitrogen, cat. 15140122), and 2.5% Matrigel (Corning Inc., Corning, NY, cat. 354248) for the first three passages. All PDCs were cultured in complete DMEM/F-12 media containing advanced DMEM/F-12 (Invitrogen, cat. 12634028), 4.9% defined fetal bovine serum, heat inactivated (HyClone Laboratories Inc., Logan, UT, cat. SH30070.03HI), 389 ng/mL hydrocortisone (Sigma-Aldrich, cat. H4001), 9.7 ng/mL human EGF recombinant protein (Invitrogen, cat. PHG0313), 23.4 microg/mL adenine (Sigma-Aldrich, cat. A2786), 97.3 U/mL penicillin-streptomycin (Invitrogen, cat. 15140122), 1.9 mM L-glutamine (Invitrogen, cat. 25030081), and 9.7 microM Y-27632 dihydrochloride (Tocris Bioscience, Bristol, United Kingdom, cat. 1254). The PDCs were cultured in complete DMEM/F12 media without 9.7 microM Y-27632 dihydrochloride for at least two passages prior to the screen. The established cell line HOP-62 was cultured in RPMI 1640 medium, HEPES (Invitrogen, cat. 22400105) with 10% defined fetal bovine serum (HyClone Laboratories Inc., cat. SH30070.03) and 2 mM L-glutamine (Invitrogen, cat. 25030081). The pooled donor HUVEC were cultured in endothelial cell growth medium 2 (PromoCell, Heidelberg, Germany, cat. C-22011) and the hMSC were cultured in mesenchymal stem cell growth medium 2 (PromoCell, cat. C-28009). For all experiments, HUVEC and hMSC were used at passages </=5, while the malignant cell lines were used at passages </=15. […]

[1] = second compound 0.1 µM, first compound 0.0316 µM
[2] = second compound 0.1 µM, first compound 0.1 µM
[3] = second compound 0.1 µM, first compound 0.316 µM
[4] = second compound 0.1 µM, first compound 1 µM
[5] = second compound 0.1 µM, first compound 3.16 µM
[6] = second compound 0.1 µM, first compound 10 µM
[7] = second compound 0.316 µM, first compound 0.0316 µM
[8] = second compound 0.316 µM, first compound 0.1 µM
[9] = second compound 0.316 µM, first compound 0.316 µM
[10] = second compound 0.316 µM, first compound 1 µM
[11] = second compound 0.316 µM, first compound 3.16 µM
[12] = second compound 0.316 µM, first compound 10 µM
[13] = second compound 1 µM, first compound 0.0316 µM
[14] = second compound 1 µM, first compound 0.1 µM
[15] = second compound 1 µM, first compound 0.316 µM
[16] = second compound 1 µM, first compound 1 µM
[17] = second compound 1 µM, first compound 3.16 µM
[18] = second compound 1 µM, first compound 10 µM
[19] = second compound 3.16 µM, first compound 0.0316 µM
[20] = second compound 3.16 µM, first compound 0.1 µM
[21] = second compound 3.16 µM, first compound 0.316 µM
[22] = second compound 3.16 µM, first compound 1 µM
[23] = second compound 3.16 µM, first compound 3.16 µM
[24] = second compound 3.16 µM, first compound 10 µM
[25] = second compound 10 µM, first compound 0.0316 µM
[26] = second compound 10 µM, first compound 0.1 µM
[27] = second compound 10 µM, first compound 0.316 µM
[28] = second compound 10 µM, first compound 1 µM
[29] = second compound 10 µM, first compound 3.16 µM
[30] = second compound 10 µM, first compound 10 µM
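Further: drug exposure lasted seven days after spheroids formed for three days.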
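Wherever viability, T/C is given: percent of DMSO vehicle control viability which is 100%.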

Row | SMILES | pIC50 (second compound 0.1 µM) | pIC50 (second compound 0.316 µM) | pIC50 (second compound 1 µM) | pIC50 (second compound 3.16 µM) | pIC50 (second compound 10 µM) | viability, T/C [1] [%] | viability, T/C [2] [%] | viability, T/C [3] [%] | viability, T/C [4] [%] | viability, T/C [5] [%] | viability, T/C [6] [%] | viability, T/C [7] [%] | viability, T/C [8] [%] | viability, T/C [9] [%] | viability, T/C [10] [%] | viability, T/C [11] [%] | viability, T/C [12] [%] | viability, T/C [13] [%] | viability, T/C [14] [%] | viability, T/C [15] [%] | other results
1 | COC(=O)c1ccc2c(C(=Nc3ccc(N(C)C(=O)CN4CCN(C)CC4)cc3)c3ccccc3)c(O)[nH]c2c1 + CC1OCC2(CCN(c3cnc(Sc4ccnc(N)c4Cl)c(N)n3)CC2)C1N | 6.66 | 6.62 | > 7.50 | 6.98 | 6.98 | 71.4 | 57.7 | 48.3 | 24.8 | 12.3 | 0.41 | 76.8 | 63.1 | 46.1 | 26.6 | 9.27 | 0.34 | 48 | 44.3 | 37.6 | viability, T/C [16]: 19.3%; viability, T/C [17]: 10%; viability, T/C [18]: 0.37%; viability, T/C [19]: 60%; viability, T/C [20]: 51.8%; viability, T/C [21]: 34.5%; viability, T/C [22]: 17.9%; viability, T/C [23]: 9.11%; viability, T/C [24]: 0.37%; viability, T/C [25]: 58.2%; viability, T/C [26]: 50.3%; viability, T/C [27]: 34.6%; viability, T/C [28]: 17.4%; viability, T/C [29]: 1.12%; viability, T/C [30]: 0.57%
2 | CC(C)NCC(C(=O)N1CCN(c2ncnc3c2C(C)CC3O)CC1)c1ccc(Cl)cc1 (stereo not given) + CNCc1ccccc1-c1csc(C(C)Nc2nc(C)nc3cc(OC)c(OC)cc23)c1 | 5.15 | 5.29 | 6.22 | > 7.50 | > 7.50 | 80.5 | 88.9 | 74.1 | 77.3 | 67.8 | 42.5 | 76.9 | 70.6 | 65.1 | 65.4 | 62.6 | 35.6 | 59.9 | 55.4 | 49.5 | viability, T/C [16]: 46.7%; viability, T/C [17]: 42.2%; viability, T/C [18]: 22.9%; viability, T/C [19]: 0.1%; viability, T/C [20]: 0.09%; viability, T/C [21]: 0.37%; viability, T/C [22]: 0.1%; viability, T/C [23]: 0.07%; viability, T/C [24]: 0.36%; viability, T/C [25]: 0.09%; viability, T/C [26]: 0.08%; viability, T/C [27]: 0.25%; viability, T/C [28]: 0.36%; viability, T/C [29]: 0.09%; viability, T/C [30]: 0.3%
3 | COC(=O)c1ccc2c(C(=Nc3ccc(N(C)C(=O)CN4CCN(C)CC4)cc3)c3ccccc3)c(O)[nH]c2c1 + COc1cc2nc(C)nc(NC(C)c3cc(N)cc(C(F)(F)F)c3)c2cc1OC1CCOC1 | 6.07 | 6.21 | 6.42 | 6.66 | 7.50 | 115 | 103 | 83 | 49.4 | 4.07 | 0.28 | 95.9 | 96.6 | 62.1 | 37.3 | 19.2 | 0.44 | 103 | 97.5 | 47 | viability, T/C [16]: 29.5%; viability, T/C [17]: 4.33%; viability, T/C [18]: 0.36%; viability, T/C [19]: 83.9%; viability, T/C [20]: 61.1%; viability, T/C [21]: 46.5%; viability, T/C [22]: 25.1%; viability, T/C [23]: 6.39%; viability, T/C [24]: 0.44%; viability, T/C [25]: 49%; viability, T/C [26]: 44.2%; viability, T/C [27]: 22.8%; viability, T/C [28]: 12.8%; viability, T/C [29]: 1.24%; viability, T/C [30]: 0.24%

From PubChem BioAssay AID1963870 (Molecular Pharmacology Branch, DTP, NCI, 2024)
